Experiments:
[1] = Highest frequency of moderate liver toxicity observed during clinical trials, expressed as a percentage. [column '% BIOL' in source]; conditions: human
[2] = Highest frequency of acute liver toxicity observed during clinical trials, expressed as a percentage. [column '% AIGUE' in source]; conditions: human
[3] = Comments (NB not yet translated). [column 'COMMENTAIRES' in source]; conditions: human
[4] = Times to onset, minimal and maximal, observed in the indexed observations. [column 'DELAI' in source]; conditions: human
[5] = human, serum
[6] = human, serum; remark: listed apart in the source
[7] = human
[8] = human; remark: listed apart in the source
[9] = human; remark: listed apart in the source
[10] = human, serum, 4383 h
[11] = human; remark: listed apart in the source
[12] = human; remark: listed apart in the source
[13] = human; remark: listed apart in the source
[14] = human; remark: listed apart in the source
[15] = human; remark: listed apart in the source
[16] = human; remark: listed apart in the source
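Throughout, for Hepatotoxicity (association with vascular disease): count of indexed literature references reporting vascular liver injury in humans, e.g. peliosis hepatitis, hepatic veno-occlusive disease or Budd-Chiari syndrome.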
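Throughout, for Hepatotoxicity (benign tumour): value is a count of indexed literature references citing a benign tumour confirmed by histopathology.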
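Throughout, for Hepatotoxicity (choleostasis): human cholestatic liver injury, shown by histopathology or by peak ALT or AST elevation over alkaline phosphatase ratio below 2, value counts indexed literature reports.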
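Throughout, for Hepatotoxicity (chronic liver disease): chronic liver injury confirmed by histopathology or persistently raised serum aminotransferase activity beyond 6 months, value given as the count of indexed literature references.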
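Throughout, for Hepatotoxicity (cirrhosis): value is a count of indexed literature references reporting cirrhosis confirmed by histopathology.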
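Throughout, for Hepatotoxicity (cytolytic): human cytolytic liver injury, shown by histopathology or by a ratio above 5 of peak ALT or AST elevation to alkaline phosphatase elevation, value counts indexed references.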
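Throughout, for Hepatotoxicity (granulomatous hepatitis): value is a count of indexed literature references reporting granulomatous liver disease confirmed by histopathology.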
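Throughout, for Hepatotoxicity (malignant tumour): malignant tumour confirmed by histopathology, value gives the count of indexed literature references reporting it.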
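Throughout, for Hepatotoxicity (severe hepatitis): human clinical data: severe hepatitis, meaning potentially life-threatening liver failure or clinically observed cases, the value counts how many indexed literature references report it.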
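Throughout, for Hepatotoxicity (steatosis): steatosis confirmed by histopathology, value is the count of indexed references.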

Row | SMILES | Hepatotoxicity (moderate) [1] [%] | Hepatotoxicity (acute) [2] [%] | Hepatotoxicity (comment) [3] | Hepatotoxicity (time to onset) [4] | Hepatotoxicity (moderate) [5] | Hepatotoxicity (acute) [6] | Hepatotoxicity (cytolytic) [7] | Hepatotoxicity (choleostasis) [8] | Hepatotoxicity (severe hepatitis) [9] | Hepatotoxicity (chronic liver disease) [10] | Hepatotoxicity (cirrhosis) [11] | Hepatotoxicity (granulomatous hepatitis) [12] | Hepatotoxicity (association with vascular disease) [13] | Hepatotoxicity (steatosis) [14] | Hepatotoxicity (malignant tumour) [15] | Hepatotoxicity (benign tumour) [16] | Hepatotoxicity (moderate) ([1]; Liver) [%] | Hepatotoxicity (acute) ([2]; Liver) [%] | Hepatotoxicity (severe hepatitis) ([9]; Liver)
1 | CC(=O)[C@]1(O)Cc2c(O)c3c(c(O)c2[C@@H](O[C@H]2C[C@H](N)[C@H](O)[C@H](C)O2)C1)C(=O)c1ccccc1C3=O [IDARUBICIN] | 18.2 | 0 | HCF MVO REACTIVATION_HVB | 8 days - 6 months | 7 | 1 | 1 | 0 | 2 | 0 | 0 | 0 | 1 | 0 | 0 | 0 |  |  | 
2 | CCCCC1=NC2(CCCC2)C(=O)N1Cc1ccc(-c2ccccc2-c2nnn[nH]2)cc1 [IRBESARTAN] |  |  | CHOLESTASE_PROLONGEE | 5 days - 4 weeks | 2 | 2 | 0 | 2 |  | 0 | 0 | 0 | 0 | 0 | 0 | 0 | 4.3 | 0 | 0
3 | CC(=O)/N=c1/sc(S(N)(=O)=O)nn1C [METHAZOLAMIDE] | 0 | 0 | CHOLESTASE_PROLONGEE | 2 weeks | 0 | 1 | 0 | 1 | 0 | 0 | 0 | 0 | 0 | 0 | 0 | 0 |  |  | 
4 | CCOc1ccc2ccccc2c1C(=O)N[C@@H]1C(=O)N2[C@@H]1SC(C)(C)[C@@H]2C(=O)O [NAFCILLIN] | 25 | 3.1 | RC/OXACILLINE/CEFALOTINE | 1 day - 2 weeks | 4 | 5 | 1 | 3 | 0 | 0 | 0 | 0 | 0 | 0 | 0 | 0 |  |  | 
5 | C[C@]12CC[C@H]3[C@@H](CCC4=CC(=O)CC[C@@H]43)[C@@H]1CC[C@@H]2O [NANDROLONE] | 0 | 0 | CHOLESTASE_PROLONGEE | 4 months - 12 years | 0 | 7 | 3 | 1 | 0 | 0 | 0 | 0 | 0 | 1 | 0 | 2 |  |  | 
6 | O=C(CCNNC(=O)c1ccncc1)NCc1ccccc1 [NIALAMIDE] | 0 | 0 | RC/PHENIPRAZINE | 3 weeks | 0 | 2 | 2 | 1 | 0 | 0 | 0 | 0 | 0 | 1 | 0 | 0 |  |  | 
7 | CCOC(=O)C1=C(C)NC(C)=C(C(=O)OC)C1c1cccc([N+](=O)[O-])c1 (stereo not given) [NITRENDIPINE] | 18.2 | 0 | AC_ANTI-N | 3 weeks | 2 | 1 | 0 | 0 | 0 | 0 | 0 | 0 | 0 | 0 | 0 | 0 |  |  | 
8 | CC1COc2c(N3CCN(C)CC3)c(F)cc3c(=O)c(C(=O)O)cn1c23 (stereo not given) [OFLOXACIN] | 42.2 | 18.2 | I/PYRAZINAMIDE | 4 days - 26 weeks | 61 | 11 | 6 | 5 | 2 | 0 | 0 | 1 | 0 | 0 | 0 | 0 |  |  | 
9 | O=C(O)c1cc(/N=N/c2ccc(O)c(C(=O)O)c2)ccc1O [OLSALAZINE] | 15 | 0 | RC/SULFASALAZINE | 3 weeks | 1 | 1 | 1 | 1 | 0 | 0 | 0 | 0 | 0 | 0 | 0 | 0 |  |  | 
10 | C[C@]12COC(=O)C[C@@H]1CC[C@@H]1[C@@H]2CC[C@@]2(C)[C@H]1CC[C@]2(C)O [OXANDROLONE] | 0 | 0 | HNF | 6 months | 0 | 2 | 0 | 2 | 0 | 0 | 0 | 0 | 0 | 0 | 0 | 1 |  |  | 
